The source of these data is ChEMBL document CHEMBL5154816, “Structure-Based Discovery and Optimization of Furo[3,2-c]pyridin-4(5H)-one Derivatives as Potent and Second Bromodomain (BD2)-Selective Bromo and Extra Terminal Domain (BET) Inhibitors” (J Med Chem, 2022).

The term half-life denotes the time needed for the level to fall by half in the phase considered.

Data set [1] in a line: Metabolic stability in human hepatocytes assessed as hepatic extraction ratio at 1 uM measured up to 60 mins in presence of NADPH by HPLC-MS/MS analysis. Format: ADME, cell-based, Hepatocyte. As to conditions: read-out: ERH.
Data set [2] is described as follows: Metabolic stability in human liver microsomes assessed as intrinsic clearance at 1 uM measured up to 60 mins in presence of NADPH by HPLC-MS/MS analysis. Format: ADME, Microsome. As to conditions: 1 h. (In general: Liver microsomes are a subcellular fraction often used to study metabolism.)
Data set [3] can be described thus: Metabolic stability in human hepatocytes assessed as hepatic clearance at 1 uM measured up to 60 mins in presence of NADPH by HPLC-MS/MS analysis. Format: ADME, cell-based, Hepatocyte.
Data set [4] in a line: Metabolic stability in rat hepatocytes assessed as hepatic extraction ratio at 1 uM measured up to 60 mins in presence of NADPH by HPLC-MS/MS analysis. As to conditions: read-out: ERH. Format: ADME, cell-based, Hepatocyte.
Data set [5] can be described thus: Metabolic stability in rat hepatocytes assessed as hepatic clearance at 1 uM measured up to 60 mins in presence of NADPH by HPLC-MS/MS analysis. Format: ADME, cell-based, Hepatocyte.
Data set [6] in a line: Metabolic stability in rat liver microsomes assessed as intrinsic clearance at 1 uM measured up to 60 mins in presence of NADPH by HPLC-MS/MS analysis. Format: ADME, Microsome. As to conditions: 1 h.
Data set [7] can be described thus: Metabolic stability in rat liver microsomes assessed as half life at 1 uM measured up to 60 mins in presence of NADPH by HPLC-MS/MS analysis. Format: ADME, Microsome.
A short description of data set [8]: Metabolic stability in human liver microsomes assessed as half life at 1 uM measured up to 60 mins in presence of NADPH by HPLC-MS/MS analysis. Format: ADME, Microsome.

For `O=C(c1ccc(F)cc1)C1CCN(CCn2c(=O)[nH]c3ccccc3c2=O)CC1` [KETANSERIN], the values for the hepatic extraction ratio at 1 h, 1 µM in data set [1] and in data set [4] were 0.712 and 0.81, respectively. The CLH in data set [2] was determined as 0.051 mL/min/g; in data set [6] it was 0.131 mL/min/g. Further, the CLhep predicted at 1 µM in data set [3] was 14.7 mL/min/kg; in data set [5] it was 25 mL/min/kg. In addition, the half-life at 1 µM came out at 18.9 min in data set [7] and 34 min in data set [8].
